The results in this text go back to ChEMBL document CHEMBL5338752, “Carbamate JNK3 Inhibitors Show Promise as Effective Treatments for Alzheimer's Disease: In Vivo Studies on Mouse Models” (J Med Chem, 2023).

Activity calls are given as the source filed them.

Data set [1] in a line: AUC in sixteen hrs fasted Sprague-Dawley rat at 3 mg/kg, po measured upto 24 hrs by LC-MS/MS analysis. The conditions noted are these: in vivo. Type of data set: ADME, organism-based. Set-up: time < 24 hrs, dose 3 mg/kg, route po.
The nature of data set [2]: Cmax in sixteen hrs fasted Sprague-Dawley rat at 3 mg/kg, po measured upto 24 hrs by LC-MS/MS analysis. Type of data set: ADME, organism-based. Set-up: time < 24 hrs, dose 3 mg/kg, route po. The conditions noted are these: in vivo.
Data set [3] has as its system Neuron. As to the kind of experiment: Neuroprotective activity against rat neuron cells assessed as inhibition of Abeta(1-42)-induced cytotoxicity by measuring increase in cell viability at 20 uM incubated for 48 hrs by MTT assay relative to control. Type of data set: functional.
Data set [4] is described as follows: Apparent permeability of the compound across basolateral side to apical side in human Caco-2 cells. Type of data set: ADME, cell-based. Background: Caco-2 cells form a polarised layer with tight junctions and transporters.
Data set [5] has as its target Mitogen-activated protein kinase 10 (Homo sapiens, UniProt P53779). As to the kind of experiment: Inhibition of JNK3 (unknown origin) using ATF2 as substrate incubated for 40 mins in presence of [gamma33P]ATP by scintillation counting analysis.
In data set [6] the test system is Mus musculus. As to the kind of experiment: Anti-alzheimer activity against APP/PS1 dE9 double transgenic mouse model assessed as time spent in platform quadrant at 30 mg/kg, po administered daily for 2 months and measured after 74 days by Morris water maze test (reference value: 14.40+/-1.60 %). The class given is functional. The conditions noted are these: time 74 day.

Data set [7] is described as follows: Efflux ratio of apparent permeability across basolateral to apical side to apical to basolateral side in human Caco-2 cells. Type of data set: ADME, cell-based.
The nature of data set [8]: AUClast in sixteen hrs fasted Sprague-Dawley rat at 3 mg/kg, po measured upto 24 hrs by LC-MS/MS analysis. Type of data set: ADME, organism-based. Set-up: dose 3 mg/kg, time < 24 hrs, route po. The settings on record: in vivo.
Data set [9] has as its system Neuron. As to the kind of experiment: Neuroprotective activity against rat neuron cells assessed as inhibition of Abeta(1-42)-induced cytotoxicity by measuring increase in cell viability at 20 uM incubated for 24 hrs by MTT assay relative to control. Type of data set: functional. A general note: Tetrazolium dyes change colour on reduction, which living cells bring about.

The subject of data set [10] is Mus musculus. The data set can be described thus: Anti-alzheimer activity against APP/PS1 dE9 double transgenic mouse model assessed as escape latency time at 60 mg/kg, po administered daily for 2 months and measured after 60 days by Passive avoidance test (reference value: 55.3+/-8.2 sec). The conditions noted are these: time 60 day. Type of data set: functional.

For data set [11], the system named is Mus musculus. The data set can be described thus: Anti-alzheimer activity against APP/PS1 dE9 double transgenic mouse model assessed as time spent in platform quadrant at 60 mg/kg, po administered daily for 2 months and measured after 74 days by Morris water maze test (reference value: 14.40+/-1.60 %). The class given is functional. The settings on record: time 74 day.

Data set [12] deals with Mus musculus. The data set can be described thus: Anti-alzheimer activity against APP/PS1 dE9 double transgenic mouse model assessed as time spent in target zone at 60 mg/kg, po administered daily for 2 months and measured after 74 days by Morris water maze test (reference value: 10.56+/-1.59 %). The class given is functional. The conditions noted are these: time 74 day.

The nature of data set [13]: Tmax in sixteen hrs fasted Sprague-Dawley rat at 3 mg/kg, po measured upto 24 hrs by LC-MS/MS analysis. Type of data set: ADME, organism-based. The settings on record: in vivo.
Data set [14] has as its target Mitogen-activated protein kinase 8 (Homo sapiens, UniProt P45983). As to the kind of experiment: Inhibition of JNK1 (unknown origin) using ATF2 as substrate incubated for 40 mins in presence of [gamma33P]ATP by scintillation counting analysis.
Data set [15] relates to Mus musculus. As to the kind of experiment: Anti-alzheimer activity against APP/PS1 dE9 double transgenic mouse model assessed as time spent in target zone at 30 mg/kg, po administered daily for 2 months and measured after 74 days by Morris water maze test (reference value: 10.56+/-1.59 %). Type of data set: functional. The settings on record: time 74 day.
Data set [16] can be described thus: Apparent permeability of the compound across apical side to basolateral side in human Caco-2 cells. Type of data set: ADME, cell-based.
The test system of data set [17] is Mus musculus. The data set can be described thus: Anti-alzheimer activity against APP/PS1 dE9 double transgenic mouse model assessed as spontaneous alteration at 60 mg/kg, po administered daily for 2 months and measured after 57 days by Y-maze test (reference value: 45.69+/-2.33%). Type of data set: functional. The conditions noted are these: time 57 day.
Data set [18] is described as follows: Effective permeability of compound by […] method. The class given is ADME. The conditions noted are these: read-out: Peff. (PAMPA measures passive passage across an artificial lipid membrane.)
Data set [19] deals with Mus musculus. The data set can be described thus: Anti-alzheimer activity against APP/PS1 dE9 double transgenic mouse model assessed as escape latency time at 30 mg/kg, po administered daily for 2 months and measured after 60 days by Passive avoidance test (reference value: 55.3+/-8.2 sec). The conditions noted are these: time 60 day. The class given is functional.
Data set [20] has as its target Mitogen-activated protein kinase 9 (Homo sapiens, UniProt P45984). As to the kind of experiment: Inhibition of JNK2 (unknown origin) using ATF2 as substrate incubated for 40 mins in presence of [gamma33P]ATP by scintillation counting analysis.
For data set [21], the system named is Mus musculus. The data set can be described thus: Anti-alzheimer activity against APP/PS1 dE9 double transgenic mouse model assessed as spontaneous alteration at 30 mg/kg, po administered daily for 2 months and measured after 57 days by Y-maze test (reference value: 45.69+/-2.33%). The conditions noted are these: time 57 day. Type of data set: functional.
A short description of data set [22]: Half life in sixteen hrs fasted Sprague-Dawley rat at 3 mg/kg, po measured upto 24 hrs by LC-MS/MS analysis. The settings on record: in vivo. The class given is ADME, organism-based.
Data set [23] in a line: AUC in sixteen hrs fasted Sprague-Dawley rat at 1 mg/kg, iv measured upto 24 hrs by LC-MS/MS analysis. The class given is ADME, organism-based. Set-up: time < 24 hrs, dose 1 mg/kg, route iv. The settings on record: in vivo.
A short description of data set [24]: Cmax in sixteen hrs fasted Sprague-Dawley rat at 1 mg/kg, iv measured upto 24 hrs by LC-MS/MS analysis. Type of data set: ADME, organism-based. Set-up: dose 1 mg/kg, time < 24 hrs, route iv. The settings on record: in vivo.
In data set [25] the test system is Neuron. The data set can be described thus: Inhibition of apoptosis in rat cortex neuron cells assessed as prevention of A-beta (1 to 42) induced cleaved PARP formation at 10 to 20 uM measured after 24 hrs by Western blot analysis. The conditions noted are these: dose 10-20 µM. The class given is functional, cell-based.
In data set [26] the target is Mitogen-activated protein kinase 10 (Rattus norvegicus) (UniProt P49187). The data set can be described thus: Inhibition of A-beta (1 to 42) induced JNK3 activation in rat cortex neuron cells assessed as reduction in c-Jun phosphorylation levels at 10 to 20 uM incubated for 24 hrs in presence of A-beta (1 to 42) by Western blot analysis. The class given is cell-based. The settings on record: dose 10-20 µM.
Mitogen-activated protein kinase 10 (Rattus norvegicus), sequence (P49187 whole entry): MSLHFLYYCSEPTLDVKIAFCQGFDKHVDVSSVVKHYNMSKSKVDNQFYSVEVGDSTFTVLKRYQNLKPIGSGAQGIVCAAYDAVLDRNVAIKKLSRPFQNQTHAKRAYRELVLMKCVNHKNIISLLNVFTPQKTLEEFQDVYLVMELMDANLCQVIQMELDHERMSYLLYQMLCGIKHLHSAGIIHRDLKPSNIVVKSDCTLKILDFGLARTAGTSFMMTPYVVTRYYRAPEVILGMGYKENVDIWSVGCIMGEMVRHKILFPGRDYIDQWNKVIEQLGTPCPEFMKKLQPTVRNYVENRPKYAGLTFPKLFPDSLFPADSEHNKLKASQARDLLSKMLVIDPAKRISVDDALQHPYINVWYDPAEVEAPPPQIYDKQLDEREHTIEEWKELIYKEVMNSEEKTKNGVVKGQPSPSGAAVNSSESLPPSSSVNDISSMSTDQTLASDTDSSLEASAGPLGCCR

Data set [27] shares this target. As to the kind of experiment: Inhibition of anisomycin induced JNK3 activation in rat cortex neuron cells assessed as reduction in Jun phosphorylation levels at 10 to 20 uM preincubated for 90 mins followed by anisomycin addition and measured after 40 mins by Western blot analysis. The class given is cell-based. The conditions noted are these: dose 10-20 µM, time 130.0 min.

In data set [28] the test system is Neuron. As to the kind of experiment: Inhibition of apoptosis in rat cortex neuron cells assessed as prevention of A-beta (1 to 42) induced cleaved caspase-3 formation at 10 to 20 uM measured after 24 hrs by Western blot analysis. The conditions noted are these: dose 10-20 µM. The class given is functional, cell-based.
Data set [29] concerns the target Mitogen-activated protein kinase 10 (Rattus norvegicus) (UniProt P49187). As to the kind of experiment: Inhibition of anisomycin induced JNK3 activation in rat cortex neuron cells assessed as inhibition of APP phosphorylation at 10 to 20 uM preincubated for 90 mins followed by anisomycin addition and measured after 40 mins by Western blot analysis. Type of data set: cell-based. The conditions noted are these: dose 10-20 µM.

Mitogen-activated protein kinase 9, sequence (P45984 whole entry): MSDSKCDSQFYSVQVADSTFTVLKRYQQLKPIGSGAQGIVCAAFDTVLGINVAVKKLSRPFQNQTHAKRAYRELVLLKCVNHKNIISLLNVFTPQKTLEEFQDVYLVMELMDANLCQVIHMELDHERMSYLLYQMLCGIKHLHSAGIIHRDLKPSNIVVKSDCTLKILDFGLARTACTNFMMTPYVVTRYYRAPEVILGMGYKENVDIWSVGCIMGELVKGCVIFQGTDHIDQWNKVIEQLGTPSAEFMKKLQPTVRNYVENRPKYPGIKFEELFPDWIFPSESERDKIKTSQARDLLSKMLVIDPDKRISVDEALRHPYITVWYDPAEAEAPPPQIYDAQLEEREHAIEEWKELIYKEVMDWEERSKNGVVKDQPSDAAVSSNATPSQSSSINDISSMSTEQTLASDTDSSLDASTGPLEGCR
Mitogen-activated protein kinase 8, sequence (P45983 whole entry): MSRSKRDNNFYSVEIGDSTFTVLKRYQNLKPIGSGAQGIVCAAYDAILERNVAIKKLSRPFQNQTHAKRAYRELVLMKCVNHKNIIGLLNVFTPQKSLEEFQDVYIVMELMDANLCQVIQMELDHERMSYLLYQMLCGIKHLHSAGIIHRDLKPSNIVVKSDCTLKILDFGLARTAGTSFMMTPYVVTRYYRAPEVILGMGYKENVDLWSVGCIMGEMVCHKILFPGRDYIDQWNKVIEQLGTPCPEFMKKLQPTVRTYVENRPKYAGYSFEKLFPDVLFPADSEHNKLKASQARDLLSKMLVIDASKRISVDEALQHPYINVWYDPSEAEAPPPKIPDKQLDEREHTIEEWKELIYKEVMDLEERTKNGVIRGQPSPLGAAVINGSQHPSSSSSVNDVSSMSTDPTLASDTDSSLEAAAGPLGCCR
Mitogen-activated protein kinase 10, sequence (P53779 whole entry): as the sequence (P49187 whole entry) above, with H27Q, S32Y, V33I, V34A counted along it

Usually AUC stands for the area under the concentration-time curve, a measure of exposure. The low end stands for low exposure, the high end for high exposure. In general, Cmax refers to the highest concentration seen after dosing. As for `CCNC(=O)Oc1ccc2nc(-c3ccc4ccccc4c3)n(-c3ccnc(N[C@H]4CCCN(C(=O)C5CC5)C4)n3)c2c1`, the AUC at 24 h in data set [1] is 260 ng·h/mL. The molecule also came in with a Cmax in data set [2] of 253 ng/mL.
One may read the Papp B→A as how fast a substance crosses the layer from the basolateral side. By IC50 is commonly meant the concentration that gives 50% inhibition. The term efflux ratio denotes the permeability from basolateral to apical divided by that in the opposite direction, in the common usage. As usually defined, the AUC(0-t) is the area under the concentration-time curve up to a stated or last time point. One may read the Tmax as the time at which the peak concentration occurs. As a reminder, the Papp A→B is the apparent permeability from the apical to the basolateral side of a cell layer. In general, half-life refers to the time needed for the level to fall by half in the phase considered. In the case of `CNC(=O)Oc1ccc2nc(-c3ccc4ccccc4c3)n(-c3ccnc(N[C@H]4CCCN(C(=O)C5CC5)C4)n3)c2c1`, the Activity in the data set with Neuron [3] is listed as 17.2%; in the data set on Mus musculus [6], 16.84%; with Neuron [9], 34.8%; in the data set with Mus musculus [11] it was 21.12%; with Mus musculus [12], 16.42%; in the data set with Mus musculus [15], 12.57%. Further, the Activity with Mus musculus [17] is 53.46%; in the data set with Mus musculus [21], 52.7%. Also, the Papp B→A in data set [4] worked out at 11.3 ×10⁻⁶ cm/s. Further, the IC50 turned out to be 53 nM in data set [5], 1040 nM in data set [14] and 973 nM in data set [20]. Also, the efflux ratio in [7] came to 2.31. For the same molecule, the AUC(0-t) at 24 h in data set [8] was determined as 351 ng·h/mL. For the same molecule, the figures for the Time in the data set with Mus musculus [10] and in the data set with Mus musculus [19] were 59.3 s and 61.6 s, respectively. For the same molecule, the Tmax in data set [13] is 23.4 min. The molecule further gave an AUC at 24 h in data set [1] of 351 ng·h/mL. The Papp A→B in data set [16] was 4.9 ×10⁻⁶ cm/s. In data set [2], this molecule gave a Cmax of 342 ng/mL. In addition, the Papp in data set [18] amounted to 67.2 ×10⁻⁶ cm/s. Besides, the half-life in data set [22] is 39 min.
For `NC(=O)Oc1ccc2nc(-c3ccc4ccccc4c3)n(-c3ccnc(N[C@H]4CCCN(C(=O)C5CC5)C4)n3)c2c1`, the AUC at 24 h in data set [1] is 345 ng·h/mL. In addition, the concentration in [2] peaked (Cmax) at 277 ng/mL.
In the case of `N#CCc1cnc(-c2ccc3ccccc3c2)n1-c1ccnc(N[C@H]2CCCN(C(=O)C3CC3)C2)n1`, the AUC at 24 h was determined as 614 ng·h/mL in [23] and 392 ng·h/mL in data set [1]. Besides, the Activity in the data set on Neuron [9] came to 14.1%. Moreover, the Cmax in data set [24] was determined as 1120 ng/mL.
As to `O=C(C1CC1)N1CCC[C@H](Nc2nccc(-n3c(-c4ccc5ccccc5c4)nc4c(F)cc(O)cc43)n2)C1`, the figures for the Activity in the data set on Neuron [3] and in the data set on Neuron [9] were 35.2% and 59.5%, respectively. For the same molecule, the IC50 in [5] turned out to be 10 nM; in data set [14], 705 nM; in data set [20] it was 151 nM. The inhibition result (in the data set on Neuron [25]; in data set [26]; in data set [27]; with Neuron [28]; in [29]) was “Active” each time. The highest level in data set [2] (Cmax) was 423 ng/mL. The Papp in [18] was determined as 22.9 ×10⁻⁶ cm/s.
For `CC(=O)[C@H]1CC[C@H]2[C@@H]3CCC4=CC(=O)CC[C@]4(C)[C@H]3CC[C@]12C` [PROGESTERONE], the Papp in [18] came out at 26.5 ×10⁻⁶ cm/s.
Take `CN(C)C(=O)Oc1ccc2nc(-c3ccc4ccccc4c3)n(-c3ccnc(N[C@H]4CCCN(C(=O)C5CC5)C4)n3)c2c1`: the AUC at 24 h in data set [1] is 554 ng·h/mL. For the same molecule, the highest level in [2] (Cmax) was 483 ng/mL.
For the molecule `O=C(C1CC1)N1CCC[C@H](Nc2nccc(-n3c(-c4ccc5ccccc5c4)nc4ccc(O)cc43)n2)C1`, the Activity worked out at 21.8% in the data set on Neuron [3] and 41.2% in the data set with Neuron [9]. The same molecule came in with an AUC at 24 h in [23] of 349 ng·h/mL. For the same molecule, the IC50 in data set [14] is 301 nM; in data set [20], 125 nM. This molecule also gave a peak concentration (Cmax) in data set [24] of 1510 ng/mL. For the same molecule, the Papp in data set [18] came to 35.1 ×10⁻⁶ cm/s.
